Experimental data as given in US20160311795A1, “PYRIMIDINE DIAMINE DERIVATIVES AS INHIBITORS OF CYTOSOLIC HSP90” (CALASIA PHARMACEUTICALS, INC., priority 2012, published 2016).

Key:
Akt1 = experiment: Rat CNS biomarker assay, Akt1 ELISA in CNS lysates; format: in vivo; settings: intraperitoneally, versus vehicle
LnCaP cells = experiment: Tumor cell viability, ATPlite; format: cell-based; settings: Homo sapiens, 72 h, read-out: EC50, decrease in cell viability
Protocol: Akt1 levels in the cell lysates were measured using kits from R&D Systems used according to the manufacturer's recommendations. Cell lysates were assayed at a 1:24 dilution for the Akt1 ELISA. The Akt1 concentrations in the cell lysates were extrapolated from the standard curve and corrected for lysate protein concentration. Akt1 levels were determined using a micro-titer plate reader (Model #Synergy HT; BioTek Inc., Winooski, Vt.). LnCaP cells were cultured in culture medium and passaged after lifting using 0.25% trypsin/EDTA. LnCaP cells were seeded into a 96 well tissue culture plate at 1.3×10^4 cells per well in a volume of 100 uL of culture medium. […] Caspase 3/7 activity was measured using a Homogeneous Caspase 3/7 Assay Kit used according to the manufacturer's recommendations. In detail, an equal volume of Caspase 3/7 Assay Kit reagent was added to the wells and fluorescence readings (Ex/Em 485/528) were taken after 3, 6, and 23 h at ambient temperature using a micro-titer plate reader. […] Fluorescence intensities of the dilutions were measured to obtain a standard curve. […] Cell viability was measured with the ATPlite Kit used according to the manufacturer's recommendation. […] Cultures were mixed at 1,000 rpm for 2 min in the dark and luminescence quantification was accomplished using a micro-titer plate reader (POLARstar Omega micro-titer plate reader; BMG Labtech).

[1] = test system: Caspase 3/7 activity in U251MG cells; experiment: Cellular Caspase-3/7 luminescence assay; format: cell-based, human; settings: 72 hours
Protocol: Further, the effect of SBI-0640725 on cellular caspase levels was also quantitated in U251MG, MBA-MD-231 and HepG2 cells. Each cell type was treated with increasing concentrations of SBI-0640725 for 72 hours. Quantification of total cellular Caspase-3 and 7 activity was accomplished using a Caspase-3/7 luminescence assay kit (Promega) according to the manufacturer's recommendations, and analyzed with a POLARstar Omega micro-titer plate reader (BMG). […] Caspase activity is a marker for apoptotic cell death.

[2] = test system: mitochondria isolated from U251MG cells; experiment: Mitochondrial membrane potential in isolated TMRE-loaded mitochondria; format: cell-based, human; settings: 10 μM or 2 μM, 30° C.
Protocol: (§1) Additional experiments were performed to determine the effect of SBI-0640725 on mitochondrial integrity. U251MG cells were treated with tetramethylrhodamine ethyl ester (TMRE), and fluorescence was visualized using fluorescence confocal microscopy (FIG. 16 panel A), or quantitated using a fluorimeter (FIG. 16 panel B) after cells had been treated with increasing concentrations of SBI-0640725 for 48 hours. […] In experiments using isolated mitochondria, mitochondrial membrane potential was determined as a measure of mitochondrial integrity. TMRE-loaded mitochondria isolated from U251MG cells were treated with either 10 μM (left bar of the pair in FIG. 17) or 2 μM (right bar of the pair in FIG. 17) SBI-0640725 while continually monitoring changes in fluorescence intensity at 30° C.

U87MG = experiment: Efficacy in GBM cells, ADP-GLO; format: cell-based; settings: Homo sapiens, U-87 MG
MDA-MB-231 = experiment: Cell viability / efficacy in breast cancer cells; format: cell-based
Protocol: The effect of SBI-0640725 on cell viability was determined by measuring cellular dehydrogenase activity (U251MG and MBA-MD-231 cells) or by measuring ADP levels (HepG2) after treating cells for 72 hours with increasing concentrations of SBI-0640725. To measure dehydrogenase activity, CCK-8 kit reagent (Dojindo) was added to the wells and incubated for 2 hours, after which absorbance was measured at 450 nm using a Synergy HT micro-titer plate reader (Biotek). To measure ADP levels, ADP-GLO reagent (Life Technologies) was added to the wells, and luminescence was measured after a 30 minute incubation using a POLARstar Omega micro-titer plate reader (BMG).
The table below summarizes efficacy of SBI-0640725 in various cancer cell lines, including U251MG, MDA-MB-231, and HepG2, using ADP-GLO assay described above. As used herein “efficacy” (EC50) is the concentration of a compound that produces half-maximal response in a cellular assay.

U251MG cells = experiment: Mitochondrial integrity in cells, TMRE fluorescence; format: cell-based, human; settings: 48 hours
Protocol: as §1

[3] = test system: Hsp70 in MBA-MD-231 cells; experiment: Hsp70 induction, ELISA; format: cell-based; settings: MBA-MD-231, 48 hours
Protocol: Experiments were performed using U251 MG and MBA-MD-231 cells to also measure induction of Hsp 70 in response to treatment with SBI-0640725. […] For Hsp70 induction measurements, cells were treated with increasing concentrations of SBI-0640725 for 48 hours, and Hsp70 levels were measured in cell lysates using ELISA.

| EC50 (LnCaP cells) | EC50 (U87MG) | EC50 (MDA-MB-231; Homo sapiens, Breast Cancer, MDA-MB-231, ADP-GLO) | Structure (SMILES) | Akt1 level in CNS tissues (Akt1) | Caspase 3/7 activity [1] | mitochondrial membrane potential [2] | cell viability (MDA-MB-231; MBA-MD-231, 72 hours, dehydrogenase activity (CCK-8)) | mitochondrial integrity (retention of de-esterified TMRE) (U251MG cells) | induction of Hsp70 [3] |
| --- | --- | --- | --- | --- | --- | --- | --- | --- | --- |
| 3.8 µM |  |  | COc1c(C)cnc(CN(CCc2ccccc2)c2cc(Cl)nc(N)n2)c1C [SBI-0639353, 6-Chloro-N4-((4-methoxy-3,5-dimethylpyridin-2-yl)methyl)-N4-phenethylpyrimidine-2,4-diamine] | a decrease in its levels compared to vehicle treated rats |  |  |  |  |  |
|  | 6.7 µM | 2.4 µM | COc1c(C)cnc(CN(CCc2ccc(F)cc2)c2cc(Cl)nc(N)n2)c1C [SBI-0640725] |  | increase in Caspase 3/7 activity | mitochondrial membrane potential decreased | reduction in cell viability | decrease proportionately with increasing concentrations | caused induction of Hsp70 |
